Data reported in article PMC5622107, “Small molecule inhibition of cGAS reduces interferon expression in primary macrophages from autoimmune mice” (Nature Communications, 2017).
Where two headings read alike, the source gives them in different places.

Columns and labels:
mouse cGAS = biological target: T1, mouse cGAS (Mus musculus, UniProt Q8C6L5); experiment: RapidFire mass spectrometry (RF-MS) cGAS enzymatic assay, cGAMP product formation; assay type: biochemical; conditions: for IC50: read-out: IC50; for inhibition at 12.5 µM: compound 12.5 µM, read-out: % inhibition at 12.5 µM
T1 construct: recombinant full-length mouse cGAS in reaction buffer; His6-SUMO (N, cleaved yes); made in house; host or cells: E. coli BL21(DE3) RIL
Procedure: The liquid was collected at the well bottom using centrifugation for 30 s at 180×g. […] Plates were centrifuged for 30 s at 180×g to collect all liquid at the bottom of the wells. […] The reaction was stopped by addition of 65 µl of 0.5% (v/v) formic acid per well. The plates were centrifuged for 30 s at 180×g and sealed with a Velocity11 PlateLoc thermal plate sealer.
The solvent used for loading/washing process was an aqueous solution of 5 mM ammonium acetate, pH 10. […] Each sample of approximately 35 µl were aspirated from a 384-well plate and separated using a Graphitic carbon Type D cartridge. After each sample was loaded onto the cartridge it was washed for 4 s at 1.5 ml min^−1 using the aqueous solvent. ATP, GTP and cGAMP were eluted for 5 s using the organic solvent at a flow rate of 1.5 ml min^−1. The cartridge was then re-equilibrated with the aqueous solvent for 5 s at a flow rate of 1.5 ml min^−1. All samples were analyzed using a negative ionization mode in the mass spectrometer, with a gas temperature of 350 °C, nebulizer pressure of 35 psig, gas flow rate of 15 l min^−1. […] The Agilent RapidFire Integrator software was used to calculate the area under the curve (AUC) of the extracted ion counts for each analyte. Data points represent values of product formation. Catalytic rates expressed as percent product formation were calculated using the AUC of cGAMP and using the AUC’s of ATP and GTP to normalize for variations in the capacity of the solid phase extraction column during a screening run, as shown in the following formula: product formation (%) = [(AUCcGAMP × 100)/(AUCcGAMP + ½ AUCATP + ½ AUCGTP)].
To determine the percent inhibition of mouse cGAS the data was normalized against the positive control (column 24) and negative control (column 23). […] The quality of the screen was assessed by Z′ factor[57] calculated as follows: Z′ = 1−[3∗(standard deviation positive control + standard deviation negative control)/(average positive control—average negative control)].

45-bp dsDNA = experiment: DNA intercalation: acridine orange displacement from dsDNA by fluorescence polarization; assay type: binding; conditions: Supplementary Table 2; for Polarization: compound 30 µM
Procedure: Ten microliters of HEN buffer (10 mM HEPES pH 7.5, 1 mM EDTA pH 7.5, 100 mM NaCl) were dispensed per well using a Thermo Multidrop Combi dispenser (Thermo Scientific). The liquid was collected at the well bottom using centrifugation for 30 s at 180×g. […] The final concentration of compounds in the assay was 30 µM. […] The liquid was collected at the well bottom using centrifugation for 30 s at 180×g. […] The liquid was collected at the well bottom using centrifugation for 30 s at 180 × g and the plates were incubated for 30 min. Mitoxantrone, a known DNA intercalator was used at 50 µM as a positive control, while DMSO alone was used as negative control. FP was measured using a Biotek Synergy Neo plate reader. […] All FP values are expressed in millipolarization (mP) units. The mP values were calculated using the equation mP = 1000 × [(I S−I SB)−(I P−I PB)]/[I S—I SB) + (I P−I PB)], where I S and […] to the parallel and perpendicular emission intensity, respectively, and I SB and I SP corresponds to parallel emission intensity perpendicular emission intensity of the buffer, respectively. The experimental G-factor, defined as G = I S/I P, was set to 1.0 in all experiments.

IFNB1-Luc activity = experiment: Interferon induction cellular assay (IFNB1-Luc) of the original manuscript version, reported in the point-by-point response; assay type: cell-based; conditions: original Fig. 5a, compared with vehicle
[1] = tested on: cGAS activity in dsDNA-stimulated RAW macrophages; experiment: Cellular luciferase assay, interferon-responsive reporter in dsDNA-stimulated RAW macrophages; assay type: cell-based; conditions: Mus musculus, Macrophage, dsDNA-activated RAW cells
Procedure: (§1) The sequence and annealing conditions of the dsDNA used is described above. Typically, 0.4 µg or 0.6 µg of dsDNA was used to stimulate RAW-Lucia ISG-KO-TREX1/ISG-KO-cGAS or RAW-Lucia ISG cells, respectively, which equated to 90% of maximal luciferase activity observed. dsDNA stimulation of RAW macrophages and subsequent luciferase measurements were performed with or without the addition of small molecules at indicated concentrations in each figure, or with DMSO as vehicle control. For the dose curve experiments, serial dilutions of inhibitors were applied to 6.7 × 10^5 cells, plated in 24-well dishes, and co-stimulated with 0.4 µg of dsDNA. In subsequent experiments using inhibitors in RAW cells, the small molecules were used at concentrations representing the derived EC75 values, while co-stimulated with one of the following: 0.4 µg dsDNA, 50 nM 5′ppp-HP20 hairpin RNA (a kind gift from Dr Anna Pyle, Yale University; sequence located in Supplementary Table 5), 10 µM cGAMP, or 100 U ml^−1 murine recombinant Ifnb (R&D Systems). dsDNA was transfected using Lipofectamine LTX. 5′ppp-HP20 RNA was transfected using Lipofectamine 2000. Cells were harvested 24 h post-transfection, washed with PBS, and lysed in 1× Luciferase Cell Lysis Buffer (Pierce).
(§2) The minimum numbers of biological and technical replicates for the luciferase assays were two and three, respectively. Analysis of luminescence values were evaluated for outliers (one standard deviation above and below the mean) for each biological replicate, and the resulting means were used to generate graphs in GraphPad Prism (v. 7.0c); where applicable, an unpaired t-test with Welch’s correction was used to compare the results of each individual compound to dsDNA or other stimulant. The experimental variances observed within control samples (untreated or vehicle) and treated samples were similar.

RAW 264.7 = experiment: Cytotoxicity, CellTiter-Glo ATP quantitation at 72 h; assay type: cell-based
Procedure: Small-molecule compounds were serially diluted to concentrations spanning the range tested in the response curves were added to 6.7 × 10^5 RAW-Blue macrophages plated 16 h prior in 96-well dishes, then harvested 72 h after compound addition. ATP was measured using CellTiter Glo Viability Assay (Promega) using 50 µM Tamoxifen (Sigma) as a positive control for cytotoxicity. Viability values were generated using vehicle (DMSO) or the first dose (RU.521) as 100% and Tamoxifen as 0%. Outliers were removed as described previously.

[2] = tested on: RAW macrophage cells stimulated with 5′ppp-HP20 RNA, Pam3CSK4, poly(I:C), LPS or recombinant Ifnb; experiment: Selectivity: RAW macrophages stimulated with non-DNA immunogenic ligands (luciferase reporter or Il-6 qRT-PCR); assay type: cell-based, mouse; conditions: compound at EC75; 5′ppp-HP20 RNA, Pam3CSK4, poly(I:C), LPS, Ifnb
Procedure: as §1, §2
The small molecules were used at concentrations representing the EC75 values and were co-stimulated with either 200 ng Pam3CSK4 (Invivogen), 25 µg poly(I:C) or 100 ng lipopolysaccharide (Sigma-Aldrich) at the cell counts and conditions previously described for the cellular luciferase assays. Cells were harvested 24 h post-transfection, washed with PBS, and RNA was extracted using Trizol (Ambion) and chloroform (Sigma-Aldrich). In all, 1–2 µg of total RNA was reverse-transcribed using random hex primers and SuperScript III (Life Technologies) into cDNA. […] The expression of mRNAs […] murine Actb1 and Il-6 were measured (see Supplementary Table 5 for primer sequences used). Target C T values were normalized to Actb1 C T values and used to calculate ΔC T. mRNA expression of target genes were then calculated using the ΔΔC T method (2^ΔΔCT). Expression values were analyzed as described in the method for cellular luciferase assays.

[3] = biological target: cGAS (cyclic GMP-AMP synthase) (mouse, UniProt Q8C6L5 147-507); experiment: X-ray crystallography, 2.13 A; RU.365 in active site; Co-crystallization; crystallization buffer not in the material; protein stock 20 mM Tris-HCl pH 7.5, 300 mM NaCl, 1 mM DTT. ITC values are for inhibitors, and t; conditions: protein: recombinant; tags: His6-SUMO removed by ULP1; chain copies: 2; 16 bp plus 1-nt 5' overhang at each end
[4] = Fig. 1e, four prioritized screening hits, confirmed with independent lots of compound
[5] = Supplementary Table 2, batch of compounds stored in the screening library

T1 sequence (Q8C6L5 whole entry): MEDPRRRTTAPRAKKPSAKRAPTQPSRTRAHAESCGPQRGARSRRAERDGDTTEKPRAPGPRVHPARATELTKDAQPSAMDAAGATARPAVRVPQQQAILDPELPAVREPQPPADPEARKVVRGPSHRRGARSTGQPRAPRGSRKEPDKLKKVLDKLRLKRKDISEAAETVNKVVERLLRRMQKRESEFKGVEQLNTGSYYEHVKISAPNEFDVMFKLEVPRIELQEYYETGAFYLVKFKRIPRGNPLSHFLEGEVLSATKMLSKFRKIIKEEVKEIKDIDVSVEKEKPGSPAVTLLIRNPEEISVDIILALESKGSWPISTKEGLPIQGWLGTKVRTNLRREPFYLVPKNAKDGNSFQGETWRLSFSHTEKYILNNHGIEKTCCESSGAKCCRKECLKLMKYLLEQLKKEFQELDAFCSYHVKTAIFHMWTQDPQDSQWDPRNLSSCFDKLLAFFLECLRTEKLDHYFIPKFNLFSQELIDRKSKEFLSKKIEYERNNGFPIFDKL
Sequence of cGAS (cyclic GMP-AMP synthase) (Q8C6L5 147-507): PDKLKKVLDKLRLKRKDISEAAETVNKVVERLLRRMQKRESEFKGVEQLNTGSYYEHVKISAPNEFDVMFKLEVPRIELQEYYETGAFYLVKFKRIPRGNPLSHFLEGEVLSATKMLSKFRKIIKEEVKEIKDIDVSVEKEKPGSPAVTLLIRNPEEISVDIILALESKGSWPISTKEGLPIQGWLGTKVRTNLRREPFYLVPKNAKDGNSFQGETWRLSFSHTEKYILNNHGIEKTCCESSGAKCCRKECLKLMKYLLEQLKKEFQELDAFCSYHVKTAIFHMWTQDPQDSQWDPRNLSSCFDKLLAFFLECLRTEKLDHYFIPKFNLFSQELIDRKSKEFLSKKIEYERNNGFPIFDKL

**Q.** For `O=C1N=C(N2CCCCC2)SC1=C1C(=O)Nc2ccccc21` [RU100840], which IC50 (mouse cGAS; [4]) is on record?
**A.** Its IC50 is 30 nM.

**Q.** And the IC50 (mouse cGAS; [5])?
**A.** Its IC50 is 60 nM.

**Q.** What about the inhibition at 12.5 µM (mouse cGAS; Supplementary Table 2) of the same molecule?
**A.** The inhibition at 12.5 µM was 88%.

**Q.** What about the “% intercalation at 30 µM” value (45-bp dsDNA; acridine orange displacement compared to mitoxantrone) of the same molecule?
**A.** The value was -8.9%.

**Q.** And the Polarization (45-bp dsDNA)?
**A.** Its Polarization is 269 mP.

**Q.** What about the IFNB1-Luc activity (IFNB1-Luc activity) of the same molecule?
**A.** Its IFNB1-Luc activity is “mild activation”.

**Q.** What does the source list for `O=C(COc1ccc(Cl)c2ccccc12)Nc1ncccc1O` [RU191752]?
**A.** IC50 (mouse cGAS; [4]): 70 nM; IC50 (mouse cGAS; [5]): 170 nM; inhibition at 12.5 µM (mouse cGAS; Supplementary Table 2): 95%; Polarization (45-bp dsDNA): 276 mP; IFNB1-Luc activity (IFNB1-Luc activity): mild activation

**Q.** `Cc1nn(-c2nc3ccccc3s2)c(O)c1C1OC(=O)c2ccccc21` (stereo not drawn) [RU281332] was tested. Which IC50 [1] did it give?
**A.** Its IC50 is 13600 nM.

**Q.** And the IC50 (mouse cGAS; Supplementary Table 3, analogs more potent than RU166365)?
**A.** Its IC50 is 1790 nM.

**Q.** And the “effect of structural modification on cGAS inhibitory potency” value (mouse cGAS; compared with RU.365)?
**A.** Its value is “did not change the potency”.

**Q.** What about the “LD50 over cellular IC50” value (RAW 264.7) of the same molecule?
**A.** Its value is 3.5 fold.

**Q.** What about the LD50 (RAW 264.7; RAW macrophages, 72 h, percent viability, listed as RU.332) of the same molecule?
**A.** Its LD50 is 48 µM.

**Q.** And the “suppression of activation by immunogenic stimuli other than dsDNA” value [2]?
**A.** The value was “inhibited the activation of cells by most of the immunogenic ligands tested”.

B1: crystal dsDNA (dsDNA)
DNA 1: AAATTGCCGAAGACGAA
DNA 2: TTTCGTCTTCGGCAATT
**Q.** Does B1 bind [3]?
**A.** Result: binds
